# Patent US20240010659A1, “NEW THIADIAZOLOPYRIMIDONE DERIVATIVES” (Hoffmann-La Roche Inc., priority 2021, published 2024)
# Tested on: mutant HTT protein (mHTT)
# Test: Homogeneous Time Resolved Fluorescence (HTRF) assay for HTT lowering in GENEAe020-A cells
# Type: cell-based
# Conditions: reduction of mHTT in Huntington patient human cells (GENEAe020-A cell line), 48 hours incubation, mean from three replicates
# Protocol: Homogeneous Time Resolved Fluorescence for HTT Lowering
# The HTRF assay was adapted from Weiss et al. (Analytical Biochemistry Volume 395, Issue 1, 1 Dec. 2009, Pages 8-15 and Analytical Biochemistry Volume 410, 2011, Pages 304-306) to cells from GENEAe020-A cell line (https://hpscreg.eu/cell-line/GENEAe020-A).
# Compounds were tested for the effect of mutant HTT levels in Huntington patient human cells (GENEAe020-A cell line) using Homogeneous Time Resolved Fluorescence (HTRF) directed towards mutant HTT protein (mHTT). The GENEAe020-A cell line was derived by Genea Biocells from human blastocysts of HD donors. After assessing viability, cells were plated into 384 well collagen coated plates in growth media. Once cells adhered, media was removed and test compounds dissolved in DMSO were diluted with buffer solution and added to the adherent cells. Controls included experiments with no cells, DMSO with no compound, and Hsp90 inhibitor control. Cells were incubated with compounds and controls for 48 hours. Then, the cells were lysed and transferred to an assay plate containing HTRF labeled monoclonal antibodies developed by Paul Patterson (Ko et al., Brain Research Bulletin, Volume 56, Numbers 3 and 4, 2001, Pages 319-329) which recognize specific areas of the HTT protein. The terbium labeled “donor” antibody (2B7) binds to the N-terminus of the HTT protein and the Alexa488 labeled “acceptor” antibody (MW1) is specific for the polyglutamine region of the protein. Binding of the acceptor labeled antibody is more efficient for the extended polyglutamine repeats of mutant HTT protein which translates into a signal boost which enables the specific measurement of mutant HTT protein level. The HTRF donor and acceptor detection reagents were incubated with the cell lysate and the ratio between the signals of the two fluorophores is indicative of the relative quantities of mHTT.
row,SMILES,EC50
1,"Cc1cn2nc(-c3cc(=O)n4nc(C5CCNCC5)sc4n3)cc(C)c2n1 [Example 2, 7-(2,8-dimethylimidazo[1,2-b]pyridazin-6-yl)-2-(4-piperidyl)-[1,3,4]thiadiazolo[3,2-a]pyrimidin-5-one]",196 nM
2,"Cc1cn2nc(-c3cc(=O)n4nc(C5CCNC6(CC6)C5)sc4n3)cc(C)c2n1 (stereo not drawn) [Example 7, 2-(4-azaspiro[2.5]octan-7-yl)-7-(2,8-dimethylimidazo[1,2-b]pyridazin-6-yl)-[1,3,4]thiadiazolo[3,2-a]pyrimidin-5-one]",302 nM
3,"Cc1cn2cc(-c3cc(=O)n4nc(C5CCNCC5)sc4n3)cc(F)c2n1 [Example 3, 7-(8-fluoro-2-methyl-imidazo[1,2-a]pyridin-6-yl)-2-(4-piperidyl)-[1,3,4]thiadiazolo[3,2-a]pyrimidin-5-one]",7400 nM
4,"Cc1cn2nc(-c3cc(=O)n4nc(C5CCNCC5)sc4n3)cc(C(F)(F)F)c2n1 [Example 9, 7-[2-methyl-8-(trifluoromethyl)imidazo[1,2-b]pyridazin-6-yl]-2-(4-piperidyl)-[1,3,4]thiadiazolo[3,2-a]pyrimidin-5-one]",700 nM
5,"Cc1cn2nc(-c3cc(=O)n4nc(N5CCNCC5)sc4n3)cc(C)c2n1 [Example 1, 7-(2,8-dimethylimidazo[1,2-b]pyridazin-6-yl)-2-piperazino-[1,3,4]thiadiazolo[3,2-a]pyrimidin-5-one]",821 nM
6,"Cc1cn2nc(-c3cc(=O)n4nc(N5C[C@@H](C)N[C@@H](C)C5)sc4n3)cc(C)c2n1 [Example 4, 7-(2,8-dimethylimidazo[1,2-b]pyridazin-6-yl)-2-[(3R,5S)-3,5-dimethylpiperazin-1-yl]-[1,3,4]thiadiazolo[3,2-a]pyrimidin-5-one]",2040 nM
7,"Cc1cn2nc(-c3cc(=O)n4nc(N5CCNC6(CC6)C5)sc4n3)cc(C)c2n1 [Example 6, 2-(4,7-diazaspiro[2.5]octan-7-yl)-7-(2,8-dimethylimidazo[1,2-b]pyridazin-6-yl)-[1,3,4]thiadiazolo[3,2-a]pyrimidin-5-one]",5840 nM
8,"Cc1cn2nc(-c3cc(=O)n4nc(C5(F)CCNCC5)sc4n3)cc(C)c2n1 [Example 8, 7-(2,8-dimethylimidazo[1,2-b]pyridazin-6-yl)-2-(4-fluoro-4-piperidyl)-[1,3,4]thiadiazolo[3,2-a]pyrimidin-5-one]",315 nM
9,"Cc1cn2nc(-c3cc(=O)n4nc(C5CCNC5)sc4n3)cc(C)c2n1 (stereo not drawn) [Example 10, 7-(2,8-dimethylimidazo[1,2-b]pyridazin-6-yl)-2-pyrrolidin-3-yl-[1,3,4]thiadiazolo[3,2-a]pyrimidin-5-one]",5220 nM
